Measured values reported in patent US7592372B2, “Liquid drug preparations” (Hisamitsu Pharmaceutical Co., Inc., priority 2001, dated 2009).

Columns and labels:
Assay type in all cases: physicochemical
[1] = Residual ratio of fudostein (HPLC) after preservation at 70° C. for seven days
Procedure: (§1) Aqueous solutions containing 8 g of fudostein were adjusted to pH 2-7 using an appropriate amount of phosphoric acid or sodium hydroxide as shown in Table 1. Purified water was added to make the total amount of each solution 100 ml, thereby obtaining liquid fudostein preparations with different pHs. The liquid preparations were preserved at 70° C. for seven days to examine the residual ratio of fudostein in the solutions, color change, and sedimentation. The residual ratio of fudostein was calculated from the amount of fudostein determined by quantitative analysis using HPLC. The color change and sedimentation were evaluated by naked eye observation and rated according to the following standard.
(§2) Purified water was added to make the total amount of each solution 100 ml, thereby obtaining liquid fudostein preparations. […]
(§3) Aqueous solutions containing 8 g of fudostein and D-sorbitol in the amounts shown in Table 5 were adjusted to pH 3.5 by adding phosphoric acid. Purified water was added to make the total amount of each solution 100 ml, thereby obtaining liquid fudostein preparations.

[2] = Color change by naked eye observation after preservation at 70° C. for seven days; further: key: −: There was no color change in the liquid preparation; ±: There was slight color change in the liquid preparation; +: There was color change in the liquid preparation; ++: There was remarkable color change in the liquid preparation
Procedure: as §1
Evaluation standard for color change:
as §2, §3

[3] = Sedimentation by naked eye observation after preservation at 70° C. for seven days
Procedure: as §1, with “standard. […] (Results) Aqueous solutions containing 8 g of fudostein and D-sorbitol in the amounts shown in Table 5 were adjusted to pH 3.5 by adding phosphoric acid. Purified water was added to make the total amount of each solution 100 ml, thereby obtaining liquid fudostein preparations.” for “standard.”

[4] = Overall stability of liquid fudostein preparations after preservation at 70° C. for seven days; details: 8 g fudostein/100 ml
Procedure: as §1, with “standard. Aqueous solutions containing 8 g of fudostein and D-sorbitol in the amounts shown in Table 5 were adjusted to pH 3.5 by adding phosphoric acid. Purified water was added to make the total amount of each solution 100 ml, thereby obtaining liquid fudostein preparations.” for “standard.”

[5] = 8 g fudostein/100 ml aqueous solution, pH 2.0, 70° C. for seven days
[6] = 8 g fudostein/100 ml aqueous solution, pH 2.5, 70° C. for seven days
[7] = 8 g fudostein/100 ml aqueous solution, pH 3.0, 70° C. for seven days
[8] = 8 g fudostein/100 ml aqueous solution, pH 3.5, 70° C. for seven days
[9] = 8 g fudostein/100 ml aqueous solution, pH 4.0, 70° C. for seven days
[10] = 8 g fudostein/100 ml aqueous solution, pH 5.0, 70° C. for seven days
[11] = 8 g fudostein/100 ml aqueous solution, pH 6.0, 70° C. for seven days
[12] = 8 g fudostein/100 ml aqueous solution, pH 7.0, 70° C. for seven days
[13] = 8 g fudostein/100 ml, D-sorbitol 0%, pH 3.5, 70° C. for seven days
[14] = 8 g fudostein/100 ml, D-sorbitol 10%, pH 3.5, 70° C. for seven days
[15] = 8 g fudostein/100 ml, D-sorbitol 20%, pH 3.5, 70° C. for seven days
[16] = 8 g fudostein/100 ml, D-sorbitol 30%, pH 3.5, 70° C. for seven days
[17] = 8 g fudostein/100 ml, D-sorbitol 40%, pH 3.5, 70° C. for seven days
[18] = 8 g fudostein/100 ml, D-sorbitol 50%, pH 3.5, 70° C. for seven days

Analytical value Residual ratio (%) [1, 5]: 99.9%
Analytical value Residual ratio (%) [1, 6]: 100.0%
Analytical value Residual ratio (%) [1, 7]: 100.7%
Analytical value Residual ratio (%) [1, 8]: 100.3%
Analytical value Residual ratio (%) [1, 9]: 101.1%
Analytical value Residual ratio (%) [1, 10]: 100.1%
Analytical value Residual ratio (%) [1, 11]: 100.4%
Analytical value Residual ratio (%) [1, 12]: 99.4%
Analytical value Residual ratio (%) ([1]; 8 g fudostein/100 ml, D-sorbitol 0%, pH 3.5 (phosphoric acid), 70° C. for seven days): 99.6%
Analytical value Residual ratio (%) ([1]; 8 g fudostein/100 ml, D-sorbitol 10%, pH 3.5 (phosphoric acid), 70° C. for seven days): 99.4%
Analytical value Residual ratio (%) ([1]; 8 g fudostein/100 ml, D-sorbitol 20%, pH 3.5 (phosphoric acid), 70° C. for seven days): 99.0%
Analytical value Residual ratio (%) ([1]; 8 g fudostein/100 ml, D-sorbitol 30%, pH 3.5 (phosphoric acid), 70° C. for seven days): 99.3%
Analytical value Residual ratio (%) ([1]; 8 g fudostein/100 ml, D-sorbitol 40%, pH 3.5 (phosphoric acid), 70° C. for seven days): 99.9%
Analytical value Residual ratio (%) ([1]; 8 g fudostein/100 ml, D-sorbitol 50%, pH 3.5 (phosphoric acid), 70° C. for seven days): 100.4%
Color change [2, 5]: −
Color change [2, 6]: −
Color change [2, 7]: −
Color change [2, 8]: −
Color change [2, 9]: −
Color change [2, 10]: ±
Color change [2, 11]: +
Color change [2, 12]: ++
Color change [2, 13]: −
Color change [2, 14]: −
Color change [2, 15]: −
Color change [2, 16]: −
Color change [2, 17]: ±
Color change [2, 18]: +
Sedimentation [3, 5]: ± (Slight sedimentation was observed.)
Sedimentation [3, 6]: ± (Slight sedimentation was observed.)
Sedimentation [3, 7]: −
Sedimentation [3, 8]: −
Sedimentation [3, 9]: −
Sedimentation [3, 10]: −
Sedimentation [3, 11]: −
Sedimentation [3, 12]: −
Sedimentation [3, 13]: −
Sedimentation [3, 14]: −
Sedimentation [3, 15]: −
Sedimentation [3, 16]: −
Sedimentation [3, 17]: + (Sedimentation was observed.)
Sedimentation [3, 18]: + (Sedimentation was observed.)
pH at which the liquid fudostein preparation remains stable ([4]; 70° C. for seven days): ≤ 5.0
sugar alcohol concentration at which liquid fudostein preparations are stable ([4]; D-sorbitol, pH 3.5, 70° C. for seven days): ≤ 40%
SMILES: N[C@@H](CSCCCO)C(=O)O [fudostein, S-(3-hydroxypropyl)-L-cysteine]
